{"source": "ChEMBL document CHEMBL4118095", "about": "“Conjugation of Paclitaxel to Hybrid Peptide Carrier and Biological Evaluation in Jurkat and A549 Cancer Cell Lines” (ACS Med Chem Lett, 2017)", "test_system": "A549", "experiment": "Cytotoxicity against human A549 cells measured after 24 hrs", "assay_type": "functional, cell-based", "conditions": "A549, 24 h"}
{"smiles": "CC(=O)O[C@H]1C(=O)[C@@]2(C)[C@H]([C@H](OC(=O)c3ccccc3)[C@]3(O)C[C@H](OC(=O)[C@H](O)[C@@H](NC(=O)c4ccccc4)c4ccccc4)C(C)=C1C3(C)C)[C@]1(OC(C)=O)CO[C@@H]1C[C@@H]2O", "note": "[PACLITAXEL]", "values": [{"measurement": "IC50", "value": 4.1, "unit": "nM"}]}
